Assay results as given in patent publication US20030203966A1, “Nitromethylthiobenzene derivatives as aldose reductase inhihibitors” (priority 1996, published 2003).

Assays:
[1] = biological target: T1, aldose reductase (Rattus norvegicus, UniProt P07943); experiment: In vitro study: inhibition of aldose reductase; format: biochemical, male Wistar rats (lenses); settings: enzyme from rat lenses; NADPH, L-glyceraldehyde; spectrophotometry at 340 nm
T1 construct: The aldose reductase used is obtained from the lenses of male Wistar rats; from tissue; host or cells: lenses of male Wistar rats
Procedure: 1) In vitro study: inhibition of aldose reductase
The aldose reductase used is obtained from the lenses of male Wistar rats according to a modification of the method by S. Hayman et al. (Journal of Biological Chemistry 240, p. 877, 1965). The enzymatic extract is diluted in a phosphate buffer in the presence of NADPH and various concentrations of the test products. The reaction is triggered with L-glyceraldehyde and the rate of reaction is measured by monitoring the disappearance of the NADPH by spectrophotometry at 340 nm. The rate of reaction is calculated for each concentration of products, and the concentration required for a 50% reduction in the rate of reaction (IC50) is then evaluated by linear interpolation.

[2] = system: level of sorbitol in the sciatic nerves; experiment: In vivo study: reduction of the accumulation of sorbitol; design: species or system male Wistar rats; settings: Rattus norvegicus, po; 5 mg/kg/day p.o.; streptozotocin-diabetic rats; sciatic nerve sorbitol, relative to diabetic and non-diabetic animals; read-out: Protection against the increase in sorbitol (%) (5 mg/kg/day p.o.)
Procedure: 2) In vivo study: reduction of the accumulation of sorbitol
Male Wistar rats weighing from 200 to 250 g are made diabetic by intravenous injection of streptozotocin (60 mg/kg). They then receive an oral treatment of the test products, in the form of a suspension, 4 hours, 30 hours and 52 hours after the injection of streptozotocin. 18 hours after the final oral treatment, the rats are sacrificed and decapitated and their sciatic nerves are then removed. After extraction, the level of sorbitol in the nerves is measured, according to the enzymatic method described by H. J. Bergmeyer (Methods of enzymatic analysis, H. U. Bergmeyer ed., Academic Press New York 3, p. 1323, 1974). The percentage of protection is calculated for each product relative to the batch of diabetic animals, taking into account the level of sorbitol in the sciatic nerves of non-diabetic rats.

SMILES | melting point | IC50 [1] [nM] | inhibition in vivo at 5 mg/kg [2] [%]
Cc1cc(NS(=O)(=O)c2ccccc2)cc(C)c1S(=O)(=O)C[N+](=O)[O-] [Example 1] | 129 to 131 °C | 8 | 65
Cc1cc(NS(=O)(=O)c2ccc(F)c(F)c2)cc(C)c1S(=O)(=O)C[N+](=O)[O-] [Example 10, 3,4-Difluoro-N-[3,5-dimethyl-4-[(nitromethyl)sulphonyl]phenyl]benzenesulphonamide] | 158 to 160 °C | 7 | 66
Cc1cc(NS(=O)(=O)c2cccc(Br)c2)cc(C)c1S(=O)(=O)C[N+](=O)[O-] [Example 13, 3-Bromo-N-[3,5-dimethyl-4-[(nitromethyl)sulphonyl]-phenyl]benzenesulphonamide] | 156 to 158 °C | 8 | 70
Cc1cc(NS(=O)(=O)c2ccccc2C(F)(F)F)cc(C)c1S(=O)(=O)C[N+](=O)[O-] [Example 14, N-[3,5-Dimethyl-4-[(nitromethyl)sulphonyl]phenyl]-2-(trifluoromethyl)benzenesulphonamide] | 171 to 173 °C | 7 | 70
Cc1cc(NS(=O)(=O)c2ccc(F)cc2)cc(C)c1S(=O)(=O)C[N+](=O)[O-] [Example 24, N-[3,5-Dimethyl-4-[(nitromethyl)sulphonyl]phenyl]-4-fluorobenzenesulphonamide] | 152 to 154 °C | 8 | 80
Cc1cc(NS(=O)(=O)c2cccc(F)c2)cc(C)c1S(=O)(=O)C[N+](=O)[O-] [Example 25, N-[3,5-Dimethyl-4-[(nitromethyl)sulphonyl]phenyl]-3-fluorobenzenesulphonamide] | 135 to 137 °C | 7 | 85
Cc1cc(NS(=O)(=O)Cc2ccccc2)cc(C)c1S(=O)(=O)C[N+](=O)[O-] [Example 26, N-[3,5-Dimethyl-4-[(nitromethyl)sulphonyl]phenyl]-phenylmethanesulphonamide] | 124 to 126 °C | 6 | 104
Cc1cc(NS(=O)(=O)c2cccc(F)c2F)cc(C)c1S(=O)(=O)C[N+](=O)[O-] [Example 29, 2,3-Difluoro-N-[3,5-dimethyl-4-[(nitromethyl)sulphonyl]phenyl]benzenesulphonamide] | 166 to 168 °C | 7 | 71
Cc1cc(NS(=O)(=O)c2cc(F)cc(F)c2)cc(C)c1S(=O)(=O)C[N+](=O)[O-] [Example 30, 3,5-Difluoro-N-[3,5-dimethyl-4-[(nitromethyl)sulphonyl]phenyl]benzenesulphonamide] | 187 to 190 °C | 8 | 87
Cc1cc(NS(=O)(=O)c2ccccc2F)cc(C)c1S(=O)(=O)C[N+](=O)[O-] [Example 34, N-[3,5-Dimethyl-4-[(nitromethyl)sulphonyl]phenyl]-2-fluorobenzenesulphonamide] | 175 to 177 °C | 9 | 69
Cc1cc(NS(=O)(=O)c2ccc(C(F)(F)F)cc2)cc(C)c1S(=O)(=O)C[N+](=O)[O-] [Example 35, N-[3,5-Dimethyl-4-[(nitromethyl)sulphonyl]phenyl]-4-(trifluoromethyl)benzenesulphonamide] | 187 to 188 °C | – | –
Cc1cc(NS(=O)(=O)c2ccc(OC(F)(F)F)cc2)cc(C)c1S(=O)(=O)C[N+](=O)[O-] [Example 36, N-[3,5-Dimethyl-4-[(nitromethyl)sulphonyl]phenyl]-4-(trifluoromethoxy)benzenesulphonamide] | 180 to 182 °C | – | –
Cc1cc(NS(=O)(=O)c2c(F)c(F)c(F)c(F)c2F)cc(C)c1S(=O)(=O)C[N+](=O)[O-] [Example 37, N-[3,5-Dimethyl-4-[(nitromethyl)sulphonyl]phenyl]-2,3,4,5,6-pentafluorobenzenesulphonamide] | 128 to 130 °C | – | –
Cc1cc(NS(=O)(=O)c2ccc3oc4ccccc4c3c2)cc(C)c1S(=O)(=O)C[N+](=O)[O-] [Example 38, N-[3,5-Dimethyl-4-[(nitromethyl)sulphonyl]phenyl]-2-dibenzofuransulphonamide] | 214 to 215 °C (dec.) | – | –
Cc1cc(NS(=O)(=O)c2ccc(-c3ccccc3)cc2)cc(C)c1S(=O)(=O)C[N+](=O)[O-] [Example 39, N-[3,5-Dimethyl-4-[(nitromethyl)sulphonyl]phenyl]-4-biphenylsulphonamide] | 206 to 208 °C (dec.) | – | –
CC(=O)Nc1ccc(S(=O)(=O)Nc2cc(C)c(S(=O)(=O)C[N+](=O)[O-])c(C)c2)cc1Cl [Example 43, N-[2-Chloro-4-[3,5-dimethyl-4-[(nitromethyl)sulphonyl]-phenylsulphamoyl]phenyl]acetamide] | 209 to 211 °C | – | –
Cc1ccccc1S(=O)(=O)Nc1cc(C)c(S(=O)(=O)C[N+](=O)[O-])c(C)c1 [Example 45, N-[3,5-Dimethyl-4-[(nitromethyl)sulphonyl]phenyl]-2-methylbenzenesulphonamide] | 118 to 120 °C | – | –
COc1cccc(S(=O)(=O)Nc2cc(C)c(S(=O)(=O)C[N+](=O)[O-])c(C)c2)c1 [Example 46, N-[3,5-Dimethyl-4-[(nitromethyl)sulphonyl]phenyl]-3-methoxybenzenesulphonamide] | 166 to 168 °C | – | –
Cc1cc(NS(=O)(=O)c2cccnc2)cc(C)c1S(=O)(=O)C[N+](=O)[O-] [Example 47, N-[3,5-Dimethyl-4-[(nitromethyl)sulphonyl]phenyl]-3-pyridinesulphonamide] | 191 to 192 °C | – | –
Cc1cc(NS(=O)(=O)Cc2ccccc2C(F)(F)F)cc(C)c1S(=O)(=O)C[N+](=O)[O-] [Example 48, N-[3,5-Dimethyl-4-[(nitromethyl)sulphonyl]phenyl]-(2-trifluoromethylphenyl)methanesulphonamide] | 146 to 148 °C | – | –
CC(=O)Nc1cccc(S(=O)(=O)Nc2cc(C)c(S(=O)(=O)C[N+](=O)[O-])c(C)c2)c1 [Example 50, N-[3[[3,5-Dimethyl-4-[(nitromethyl)sulphonyl]phenylamino]sulphonyl]phenyl]acetamide] | 108 to 110 °C | – | –
Cc1ccccc1CS(=O)(=O)Nc1cc(C)c(S(=O)(=O)C[N+](=O)[O-])c(C)c1 [Example 51, N-[3,5-Dimethyl-4-[(nitromethyl)sulphonyl]phenyl]-(2-methylphenyl)methanesulphonamide] | 167 to 169 °C | – | –
Cc1cc(NS(=O)(=O)Cc2ccc(Br)cc2F)cc(C)c1S(=O)(=O)C[N+](=O)[O-] [Example 52, 4-Bromo-N-[3,5-dimethyl-4-[(nitromethyl)sulphonyl]-phenyl]-(2-fluorophenyl)methanesulphonamide] | 152 to 154 °C | – | –
Cc1cc(NS(=O)(=O)CC2CCCCC2)cc(C)c1S(=O)(=O)C[N+](=O)[O-] [Example 53, N-[3,5-Dimethyl-4-[(nitromethyl)sulphonyl]phenyl]-cyclohexylmethanesulphonamide] | 126 to 128 °C | – | –
